From ChEMBL document CHEMBL2062419, “Synthesis and antiviral activities of hexadecyloxypropyl prodrugs of acyclic nucleoside phosphonates containing guanine or hypoxanthine and a (S)-HPMP or PEE acyclic moiety” (Eur J Med Chem, 2012) come the findings set out here.

Data set [1] has as its system Mammalian orthoreovirus 1. The data set can be described thus: Antiviral activity against Reovirus 1 by viral CPE assay. The data set is classed as functional, organism-based.
Data set [2] concerns Human alphaherpesvirus 3. The data set can be described thus: Antiviral activity against thymidine kinase positive VZV OKa infected in HEL cells by plaque formation assay. In kind it is functional, cell-based, Human herpesvirus 3 strain Oka vaccine. The following applies: Human alphaherpesvirus 3, OKa.
Data set [3] has as its system Felid alphaherpesvirus 1. The data set can be described thus: Antiviral activity against Feline herpesvirus infected in CRFK cells by viral CPE assay. The following applies: Felid alphaherpesvirus 1, CRFK. The data set is classed as functional, organism-based.
Data set [4] relates to Vaccinia virus. Briefly: Antiviral activity against Vaccinia virus Lederie infected in HEL cells by viral CPE assay. The data set is classed as functional, organism-based. The following applies: Orthopoxvirus vaccinia.
Data set [5] is described as follows: Selectivity index, ratio of cytotoxic CC50 for HEL cells to EC50 for HSV2 G.
Data set [6] in a line: Selectivity index, ratio of cytotoxic CC50 for HEL cells to EC50 for Vaccinia virus Lederie. The data set is classed as toxicity, cell-based. The following applies: human, read-out: Ratio CC50/EC50.
In data set [7] the test system is Human alphaherpesvirus 3. Briefly: Antiviral activity against thymidine kinase positive VZV YS infected in HEL cells by plaque formation assay. The data set is classed as functional, organism-based. The following applies: Human alphaherpesvirus 3, YS.
The test system of data set [8] is Human immunodeficiency virus 2. The data set can be described thus: Antiviral activity against HIV2 ROD infected in human CEM cells assessed as reduction in virus-induced CEM giant cell formation incubated for 4 days at 37 degC by microscopy. The data set is classed as functional, organism-based. The following applies: ISOLATE ROD, CCRF-CEM.
The subject of data set [9] is Human alphaherpesvirus 2. Briefly: Antiviral activity against HSV2 G infected in HEL cells by viral CPE assay. The data set is classed as functional, organism-based. As to conditions: Human alphaherpesvirus 2, strain G.
Data set [10] relates to Sindbis virus. The data set can be described thus: Antiviral activity against Sindbis virus by viral CPE assay. The data set is classed as functional, organism-based.
Data set [11] relates to Human betaherpesvirus 5. The data set can be described thus: Antiviral activity against HCMV AD169 infected in HEL cells by viral CPE assay. As to conditions: Human betaherpesvirus 5, AD169, HEL. In kind it is functional, organism-based.
Data set [12] in a line: Selectivity index, ratio of cytotoxic CC50 for HEL cells to EC50 for ACV resistant HSV1 KOS.
For data set [13], the system named is Respiratory syncytial virus. Briefly: Antiviral activity against Respiratory syncytial virus Long by viral CPE assay. In kind it is functional, organism-based.
Data set [14] in a line: Cytotoxicity against HEL cells assessed as effect on cell morphology incubated for 3 days by microscopy. The data set is classed as cell-based. As to conditions: human.
Data set [15] is described as follows: Selectivity index, ratio of cytotoxic CC50 for HEL cells to EC50 for VZV 07/01.
A short description of data set [16]: Selectivity index, ratio of cytotoxic CC50 for HEL cells to EC50 for HSV1 KOS.
Data set [17] concerns Vesicular stomatitis virus. Briefly: Antiviral activity against VSV by viral CPE assay. The data set is classed as functional, organism-based.
In data set [18] the test system is Coxsackievirus B4. The data set can be described thus: Antiviral activity against Human coxsackievirus B4 by viral CPE assay. In kind it is functional, organism-based.
Data set [19] deals with Human alphaherpesvirus 1. Briefly: Antiviral activity against thymidine kinase negative and ACV resistant HSV1 KOS infected in HEL cells by viral CPE assay. In kind it is functional, organism-based. The following applies: Human alphaherpesvirus 1, KOS.
Data set [20] deals with Human betaherpesvirus 5. Briefly: Antiviral activity against HCMV Davis infected in HEL cells by viral CPE assay. In kind it is functional, organism-based. As to conditions: Human betaherpesvirus 5, Davis.
Data set [21] in a line: Selectivity index, ratio of cytotoxic CC50 for HEL cells to EC50 for HCMV AD169.
The nature of data set [22]: Selectivity index, ratio of cytotoxic CC50 for HEL cells to EC50 for VZV Oka.
Data set [23] concerns Human immunodeficiency virus 1. The data set can be described thus: Antiviral activity against HIV1 3B infected in human CEM cells assessed as reduction in virus-induced CEM giant cell formation incubated for 4 days at 37 degC by microscopy. In kind it is functional, organism-based. As to conditions: CCRF-CEM.
For data set [24], the system named is Punta Toro virus. The data set can be described thus: Antiviral activity against Punta Toro virus by viral CPE assay. The data set is classed as functional, organism-based.
The test system of data set [25] is Human alphaherpesvirus 1. The data set can be described thus: Antiviral activity against HSV1 KOS infected in HEL cells by viral CPE assay. The data set is classed as functional, organism-based. As to conditions: Human alphaherpesvirus 1, KOS.
Data set [26] has as its system Human respirovirus 3. Briefly: Antiviral activity against Human parainfluenza virus 3 by viral CPE assay. The data set is classed as functional, organism-based.
Data set [27] in a line: Selectivity index, ratio of cytotoxic CC50 for HEL cells to EC50 for HCMV Davis.
The test system of data set [28] is Human alphaherpesvirus 3. Briefly: Antiviral activity against thymidine kinase negative VZV 07/01 infected in HEL cells by plaque formation assay. The data set is classed as functional, organism-based. The following applies: Human alphaherpesvirus 3, 07/01, HEL.
Data set [29] in a line: Selectivity index, ratio of cytotoxic CC50 for HEL cells to EC50 for VZV YS.
The test system of data set [30] is HEL. The data set can be described thus: Cytotoxicity against HEL cells assessed as effect on cell growth incubated for 3 days by Coulter counter assay. In kind it is cell-based. As to conditions: human, 72 h.
A short description of data set [31]: Selectivity index, ratio of cytotoxic CC50 for HEL cells to EC50 for Feline herpesvirus. The data set is classed as toxicity, cell-based. The following applies: human, read-out: Ratio CC50/EC50.
Data set [32] has as its system Human alphaherpesvirus 3. Briefly: Antiviral activity against thymidine kinase negative VZV YS/R infected in HEL cells by plaque formation assay. The data set is classed as functional, organism-based. As to conditions: Human alphaherpesvirus 3, YS/R.
A short description of data set [33]: Selectivity index, ratio of cytotoxic CC50 for HEL cells to EC50 for VZV YS/R.

Active and inactive are the calls of the source. The rule behind the calls is not given here. Some results are limits rather than exact numbers.

The term EC50 denotes the concentration giving half of the maximal effect. Low readings indicate an effect from little substance, high ones a need for much substance. The term CC50 denotes the concentration that lowers cell viability or growth by half. Take `CCCCCCCCCCCCCCCCOCCCOP(=O)(O)CO[C@H](CO)Cn1cnc2c(=O)[nH]c(N)nc21`: the result in data set [1], in data set [8], in data set [10], in [13], in [17] and in [18] was inactive. Further, the outcome in [23], in data set [24] and in [26] was inactive. Also, the EC50 is 0.002 µM in [2]; greater than 1.33 µM in data set [3]; 0.011 µM in [4]; 0.0025 µM in data set [7]; 0.007 µM in [9]; 0.0066 µM in data set [11]. Further, the EC50 in data set [19] turned out to be 0.012 µM; in data set [20] it was 0.0022 µM; in data set [25], 0.008 µM; in data set [28], 0.0017 µM. The “Ratio CC50/EC50” value in data set [5] worked out at 103; in data set [12], 60; in [15], 423; in data set [16], 90; in data set [21], 109; in data set [22] it was 360. Further, the “Ratio CC50/EC50” value was 327 in [27] and 288 in data set [29]. In addition, the selectivity ratio in [6] stood at 65. Further, the MCC at 72 h in [14] is no less than 1.3 µM. For the same compound, in [30], the CC50 is 0.72 µM.
`Nc1nc2c(ncn2C[C@H]2COP(=O)(O)CO2)c(=O)[nH]1`: the EC50 came to 0.1 µM in data set [2]; 0.9 µM in data set [3]; 1 µM in data set [4]; 0.66 µM in [9]; 1.5 µM in [11]; 0.5 µM in data set [19]. The EC50 was 1.6 µM in data set [20], 0.66 µM in [25] and 0.23 µM in data set [28]. In addition, the “Ratio CC50/EC50” value in data set [5] worked out at 26; in data set [12] it was 34; in [15] it was 74; in data set [16], 26; in data set [21], 11; in data set [22], 170. The “Ratio CC50/EC50” value in [27] is listed as 11. The results for the selectivity ratio in [6] and in data set [31] were 17 and 96, respectively. Besides, in [14], the MCC at 72 h is greater than 100 µM. In data set [30], the CC50 was determined as 17 µM.
Regarding `CCCCCCCCCCCCCCCCOCCCOP1(=O)CO[C@@H](Cn2cnc3c(=O)[nH]c(N)nc32)CO1` (mixture of isomers), the outcome in data set [1], in data set [8], in data set [10], in [13], in data set [17] and in [18] was inactive. The outcome in data set [23], in [24] and in data set [26] was inactive. The EC50 in [2] stood at 0.007 µM; in data set [3] it was 0.43 µM; in data set [4] it was 0.13 µM; in data set [7] it was 0.001 µM; in data set [9], 0.08 µM; in [11] it was 0.005 µM. The EC50 came out at 0.09 µM in [19]; 0.002 µM in [20]; 0.005 µM in data set [32]; 0.034 µM in data set [25]; 0.005 µM in data set [28]. Also, the “Ratio CC50/EC50” value in data set [5] is on record as 238; in data set [12], 211; in [15], 3800; in data set [16], 559; in data set [21], 3800; in data set [22], 2700. Also, the “Ratio CC50/EC50” value in data set [33] is 3800; in data set [27], 9500; in data set [29], 19000. In addition, the selectivity ratio in [6] was determined as 146; in data set [31] it was 398. Also, in data set [14], the MCC at 72 h is no less than 171 µM. The CC50 in data set [30] is 19 µM.
With `CCCCCCCCCCCCCCCCOCCCOP(=O)(CO[C@H](CO)Cn1cnc2c(=O)[nH]c(N)nc21)OCCCOCCCCCCCCCCCCCCCC`, the outcome in [1], in data set [8], in data set [10], in [13], in data set [17] and in data set [18] was inactive. The result in [23], in data set [24] and in data set [26] was inactive. The EC50 in data set [2] is 3.9 µM; in data set [3], greater than 113 µM; in [4] it was 44.7 µM; in [7], 1.2 µM; in data set [9], 23.2 µM; in data set [11], 11.9 µM. The EC50 in [19] stood at 30.5 µM; in data set [20] it was 10.1 µM; in [32], 2 µM; in [25], 11.9 µM; in data set [28], 1.4 µM. The “Ratio CC50/EC50” value was greater than 5 in data set [5]; greater than 4 in data set [12]; greater than 81 in [15]; greater than 9 in data set [16]; greater than 9 in data set [21]; greater than 29 in data set [22]. For the same compound, the “Ratio CC50/EC50” value in data set [33] is recorded as greater than 57; in data set [27], greater than 11; in [29] it was greater than 94. Also, in data set [6], the selectivity ratio is greater than 2.5. In addition, the MCC at 72 h in data set [14] is no less than 22.6 µM. The CC50 in data set [30] is greater than 113 µM.
As to `O=c1[nH]c(=O)n([C@H]2C[C@H](O)[C@@H](CO)O2)cc1/C=C/Br` [BRIVUDINE], the EC50 in data set [7] was 0.006 µM; in data set [9], 105 µM; in [19] it was no less than 183 µM; in [32], no less than 120 µM; in data set [25], 0.038 µM; in data set [28], 53 µM. Moreover, the MCC at 72 h in data set [14] was greater than 300 µM. In addition, in data set [30], the CC50 was determined as 347 µM.
Turning to `Nc1nc2c(ncn2C[C@@H](CO)OCP(=O)(O)O)c(=O)[nH]1`, the EC50 stood at 0.56 µM in [2]; 0.72 µM in [3]; 1.1 µM in data set [4]; 0.78 µM in data set [9]; 1.8 µM in data set [11]; 0.78 µM in data set [19]. Also, the values for the EC50 in data set [20], in data set [25] and in data set [28] were 1.5 µM, 0.78 µM and 0.21 µM, respectively. The “Ratio CC50/EC50” value in [5] was found to be 50; in data set [12], 50; in data set [15] it was 186; in data set [16], 50; in data set [21] it was 22; in [22], 70. In addition, the “Ratio CC50/EC50” value in data set [27] amounted to 26. The values for the selectivity ratio in data set [6] and in [31] were 35 and 157, respectively. Further, the MCC at 72 h in data set [14] is greater than 100 µM. Further, in data set [30], the CC50 was determined as 39 µM.
